## [NH3+]C1CCCCC1.[S-]c1nc2ccccc2s1
In 1,4-dioxane, 303.15 K
  solubility (mole fraction): 0.000208
In 1,4-dioxane, 308.15 K
  solubility (mole fraction): 0.000291
In 1,4-dioxane, 313.15 K
  solubility (mole fraction): 0.000418
In 1,4-dioxane, 318.15 K
  solubility (mole fraction): 0.000608
In 1,4-dioxane, 323.15 K
  solubility (mole fraction): 0.000793
In 1,4-dioxane, 328.15 K
  solubility (mole fraction): 0.00105
In 1,4-dioxane, 333.15 K
  solubility (mole fraction): 0.00141
In 1,4-dioxane, 338.15 K
  solubility (mole fraction): 0.00169
In 1,4-dioxane, 343.15 K
  solubility (mole fraction): 0.00217
In 1,4-dioxane, 348.15 K
  solubility (mole fraction): 0.00266
In MIBK, 303.15 K
  solubility (mole fraction): 0.000389
In MIBK, 308.15 K
  solubility (mole fraction): 0.000506
In MIBK, 313.15 K
  solubility (mole fraction): 0.000672
In MIBK, 318.15 K
  solubility (mole fraction): 0.00085
In MIBK, 323.15 K
  solubility (mole fraction): 0.00111
In MIBK, 328.15 K
  solubility (mole fraction): 0.00141
In MIBK, 333.15 K
  solubility (mole fraction): 0.00177
In MIBK, 338.15 K
  solubility (mole fraction): 0.00215
In MIBK, 343.15 K
  solubility (mole fraction): 0.00252
In MIBK, 348.15 K
  solubility (mole fraction): 0.00306
In toluene, 303.15 K
  solubility (mole fraction): 2e-05
In toluene, 308.15 K
  solubility (mole fraction): 4.26e-05
In toluene, 313.15 K
  solubility (mole fraction): 5.64e-05
In toluene, 318.15 K
  solubility (mole fraction): 6.78e-05
In toluene, 323.15 K
  solubility (mole fraction): 8.02e-05
In toluene, 328.15 K
  solubility (mole fraction): 0.000121
In toluene, 333.15 K
  solubility (mole fraction): 0.000175
In toluene, 338.15 K
  solubility (mole fraction): 0.00026
In toluene, 343.15 K
  solubility (mole fraction): 0.000344
In toluene, 348.15 K
  solubility (mole fraction): 0.000421
In water, 303.15 K
  solubility (mole fraction): 1.32e-05
In water, 308.15 K
  solubility (mole fraction): 1.95e-05
In water, 313.15 K
  solubility (mole fraction): 2.59e-05
In water, 318.15 K
  solubility (mole fraction): 3.24e-05
In water, 323.15 K
  solubility (mole fraction): 4e-05
In water, 328.15 K
  solubility (mole fraction): 5.4e-05
In water, 333.15 K
  solubility (mole fraction): 7.55e-05
In water, 338.15 K
  solubility (mole fraction): 8.97e-05
In water, 343.15 K
  solubility (mole fraction): 0.000124
In water, 348.15 K
  solubility (mole fraction): 0.000164
